In patent US20240269170A1, “Treatment of Inflammatory Conditions or Diseases” (Queen Mary University of London, priority 2021, published 2024):

Test system: K/B×N serum induced arthritis in mice
Experiment: K/B×N serum transfer inflammatory arthritis, MCTR3 given immediately after disease onset
Format: in vivo, mouse
Description: FIG. 7: MCTR3 limits joint inflammation. Mice were administered K/B×N serum on days 0 and 2 and then treated with MCTR3 (100 ng/mouse) or Vehicle (PBS+0.1% EtOH) on days 3 and 5. Disease course was evaluated by assessing (A) clinical scores. (B-C) On day 7 joints were collected and disease severity was evaluated using (B) H&E Staining and (C) glycosaminoglycan content was assessed using Safranin-O staining, arrows denote Safranin-O staining in cartilage. Results for A are presented as mean±SEM. Statistical differences for A were evaluated using Two-Way ANOVA. n=4 mice per group. IFP=intrapatellar fat, M=meniscus, TB=Tibia, PF=Pannus formation, Red arrows denote leukocyte infiltration. (D-E) Lipid mediator profiles were determined using LC-MS/MS-based lipid mediator profiling and evaluated using PLS-DA. (D) scores plot with highlighted regions denoting the clusters representing cells from each group and (E) VIP scores for top 15 mediators. Each dot in the score plot represents a separate mouse.
For this purpose, we employed a serum transfer model of inflammatory arthritis, which relies on the activation of the innate immune system replicating the effector phase of rheumatoid arthritis (Korganow et al., 1999, Immunity 10, 451-461). […] We next evaluated whether MCTR3 administration also regulated the joint lipid mediator profile. Using partial least square discriminant analysis, which produces a regression model built using concentrations of lipid mediators differently expressed between the two groups, we found a shift in joint lipid mediator concentrations in mice treated with MCTR3. This shift was linked with a downregulation of pro-inflammatory and nociceptive eicosanoids including PGE2 and PGF2a and an upregulation of pro-resolving and anti-nociceptive mediators such as MaR1 and PDX (FIG. 7D,E).
All samples were extracted using solid-phase extraction columns as in (Gomez et al., 2020, Nat Commun 11, 5420). In brief, samples were placed in ice-cold methanol containing deuterated internal standards (d8-5S-HETE, d4-LTB4, d5-LXA4, d4-PGE2, d5-RvD2, d5-MaR1, d5-MaR2, d5-RvD3, d4-RvE1, d5-17R-RvD1, d5-LTC4, d5-LTD4 and d5-LTE4) representing each chromatographic region of identified LM. Following protein precipitation (−20° C. for a minimum of 45 min), samples were centrifuged and supernatants extracted using an ExtraHera System (Biotage) using solid-phase extraction with Isolute C18 500 mg columns (Biotage). Methyl formate and methanol fractions were collected, brought to dryness and resuspended in phase (methanol/water, 1:1, vol/vol) for injection on a Shimadzu LC-20AD HPLC and a Shimadzu SIL-20AC autoinjector, paired with a QTrap 5500 or QTrap 6500^+ (Sciex). In the analysis of mediators eluted in the methyl formate fraction, an Agilent Poroshell 120 EC-C18 column (100 mm×4.6 mm×2.7 μm) was kept at 50° C. and mediators eluted using a mobile phase consisting of methanol/water/acetic acid of 20:80:0.01 (vol/vol/vol) that was ramped to 50:50:0.01 (vol/vol/vol) over 0.5 min and then to 80:20:0.01 (vol/vol/vol) from 2 min to 11 min, maintained till 14.5 min and then rapidly ramped to 98:2:0.01 (vol/vol/vol) for the next 0.1 min. This was subsequently maintained at 98:2:0.01 (vol/vol/vol) for 5.4 min, and the flow rate was maintained at 0.5 ml/min. QTrap 5500 was operated in negative ionization mode using a multiple reaction monitoring method. […]

[1] = 100 ng/mouse on days 3 and 5, LC-MS/MS, PLS-DA
[2] = 100 ng/mouse on days 3 and 5, joints day 7

CC/C=C\C/C=C\C[C@H](O)[C@@H](/C=C/C=C/C=C\C/C=C\CCC(=O)O)SC[C@H](N)C(=O)O [MCTR3, 13R-cysteinyl, 14S-hydroxy-4Z, 7Z, 9E, 11E, 13R, 14S, 16Z, 19Z-docosahexaenoic acid]
joint pro-inflammatory and nociceptive eicosanoids including PGE2 and PGF2a [1]: downregulation
joint pro-resolving and anti-nociceptive mediators such as MaR1 and PDX [1]: upregulation
leukocyte infiltration (H&E) [2]: decrease
safranin staining (glycosaminoglycan content in the cartilage) [2]: increased
clinical scores (100 ng/mouse on days 3 and 5, vs vehicle): significant reduction
